This passage reports TGI and GI50 results from PubChem BioAssay (NCI).

Experiment in all cases: DTP human tumour cell line panel, 48 h
In experiment [1] the test system is HCT-15 colon.
Experiment [2] has as its system RPMI-8226 leukemia.
For experiment [3], the system named is SK-MEL-2 melanoma.
The test system of experiment [4] is LXFL 529 NSCLC.
For experiment [5], the system named is HL-60(TB) leukemia.
Experiment [6] relates to RXF 393 renal.
In experiment [7] the test system is DMS 114 small cell lung.
Experiment [8] concerns SNB-75 CNS.
The test system of experiment [9] is BT-549 breast.
In experiment [10] the test system is T-47D breast.

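Where inhibition never reached the appropriate level, the endpoint shown equals the highest concentration tested. Otherwise, values were interpolated linearly from a five-concentration, 48-hour dose response in 96-well plates. Here, GI50 denotes the concentration required for 50% inhibition of growth. TGI marks complete inhibition of growth.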

For the compound `COC(=O)/C(=N/O)C(C(=O)C=C(C)C)C(=O)C(=O)Nc1nc2ccc([N+](=O)[O-])cc2s1` (configuration not stated), the TGI in [1] is greater than 100 µM; in experiment [2] it was greater than 100 µM; in experiment [3] it was 71.9 µM; in [4], greater than 100 µM; in experiment [5] it was greater than 100 µM.
With `O=C(Cc1nc2c3c(ccc2[nH]c1=O)C(=O)c1ccccc1C3=O)C(=O)Nc1ccccc1[N+](=O)[O-]`, the concentration for total growth inhibition (TGI) came out at 41.1 µM in [2], 45.4 µM in experiment [3], 18 µM in experiment [4] and 43.7 µM in experiment [5].
On to `Cn1c(=O)nc2n(-c3cc(C(F)(F)F)cc(C(F)(F)F)c3)c3ccccc3nc-2c1=O`, for which the total growth inhibition concentration (TGI) in experiment [6], in experiment [1], in [2], in [3], in experiment [7] and in [5] was greater than 100 µM throughout. For the same compound, the concentration for total growth inhibition (TGI) in [8] came to 47.1 µM.
Turning to `CCC1CN2CCc3cc(OC)c(OC)cc3C2CC1CC1c2cc(OC)c(OC)cc2CCN1C(=O)C1CCCN1` (configuration not stated), the TGI is 73.8 µM in experiment [6]; greater than 100 µM in experiment [1]; greater than 100 µM in [2]; 68.7 µM in experiment [3]; 64.4 µM in [4]; 43.9 µM in experiment [5]. The TGI in experiment [8] is greater than 100 µM.
On to `Cc1ccccc1C1=[N+]([O-])c2ccc(Cl)cc2C1=O`, for which the total growth inhibition concentration (TGI) in experiment [6] worked out at 34.9 µM; in [1] it was 31.9 µM; in [2] it was 9.37 µM; in experiment [3] it was 46 µM; in experiment [4], 24.3 µM; in experiment [5], 6.22 µM. In addition, the TGI in experiment [8] amounted to 40.3 µM.
As to `CC(C)=C1CCC(CN(C)C)C1=O` (configuration not stated), the TGI amounted to 33.5 µM in experiment [6]; 30.8 µM in [1]; 78.4 µM in experiment [3]; 38.4 µM in experiment [7]; 25.4 µM in experiment [4]; 15.6 µM in [5]. Also, the TGI in experiment [8] came to 24.2 µM.
In the case of `CO[C@H]1Nc2c(ccc(C)c2O)C(=O)N2C=C(/C=C/C(N)=O)C[C@@H]12`, the TGI was 0.233 µM in [6]; 0.758 µM in experiment [1]; 8.51 µM in [2]; 0.0223 µM in [3]; less than 0.0479 µM in [9]; 0.044 µM in [7]. Besides, the figures for the TGI in experiment [10], in [5] and in experiment [8] were greater than 7.99 µM, 0.456 µM and 0.0576 µM, respectively.
For `O=[N+]([O-])c1cccc(C2=NOC(C3CCCCC3)C2)c1` (configuration not stated), the TGI in [1], in experiment [3], in experiment [7], in [4], in [5] and in experiment [8] was greater than 100 µM each time.
For the compound `COc1cc(/C=C2\[C@H]3c4c(c(OC)c(C)c(OC)c4OC)CC(C(=O)N2Cc2ccccc2)N3C)c(OC)c(C)c1OC`, the TGI in experiment [6] is greater than 100 µM; in experiment [2], 61.2 µM; in experiment [4], 43.9 µM; in experiment [5], 36 µM; in experiment [8], 82.7 µM.
As for `Cc1[nH]c2ccccc2c1C1Cc2ccccc2N1C(=O)C#Cc1ccc([N+](=O)[O-])cc1` (configuration not stated), the TGI in [6], in experiment [2], in [7], in experiment [4], in experiment [5] and in experiment [8] was greater than 100 µM each time.
Consider `Cc1cccc(C2=C/C(=C(\SS/C(C(=O)c3ccc(OCC(=O)O)c(Cl)c3Cl)=C3\C=C(c4cccc(C)c4)SS3)C(=O)c3ccc(OCC(=O)O)c(Cl)c3Cl)SS2)c1`, for which the concentration for total growth inhibition (TGI) is greater than 51.6 µM in experiment [1]; 41.4 µM in experiment [2]; 39.8 µM in experiment [3]; 17.7 µM in experiment [7]; 4.71 µM in [5]; greater than 83.5 µM in experiment [8].
Regarding `O=C(N/C(=C\c1ccc([N+](=O)[O-])cc1)c1nc2ccccc2[nH]1)c1ccccc1`, the concentration for total growth inhibition (TGI) in experiment [6], in experiment [1], in experiment [2], in experiment [3], in [7] and in experiment [4] was greater than 100 µM in each case. In experiment [5], this compound displayed a TGI greater than 100 µM.
For the compound `Cc1ccc(C)c(N2C/C(=N\NC(=O)CC#N)C(c3nc4ccccc4s3)C(=O)C2=O)c1` (configuration not stated), the concentration for total growth inhibition (TGI) in experiment [6], in [1], in [3], in [7], in [4] and in experiment [5] was greater than 100 µM throughout. Further, in experiment [8], the TGI is greater than 100 µM.
For the compound `CC(=O)N1CCN(c2ccc(OCC3COC(Cn4ccnc4)(c4ccc(Cl)cc4Cl)O3)cc2)CC1` (configuration not stated), the total growth inhibition concentration (TGI) in experiment [6] was 57.8 µM; in [1], greater than 100 µM; in experiment [2], greater than 100 µM; in [3] it was 39.1 µM; in experiment [7] it was 43.7 µM; in experiment [4], greater than 100 µM. Also, the total growth inhibition concentration (TGI) in experiment [5] is greater than 100 µM.
In the case of `CCOC(=O)NC(=O)c1cn(C2CCCCC2)c(=O)[nH]c1=O`, the TGI in experiment [1], in experiment [2], in experiment [3], in [4] and in experiment [5] was greater than 100 µM each time.
As to `CCc1ccc2c(c1)C(=O)c1c-2n(CCCN=[N+]=[N-])c(=O)c2cc([N+](=O)[O-])ccc12`, the GI50 in experiment [6], in experiment [1], in [2], in [3], in [9] and in experiment [10] was greater than 50 µM throughout. The GI50 in experiment [5] was greater than 50 µM; in experiment [8], 25.5 µM. The TGI in [6], in [1], in experiment [2], in experiment [3], in experiment [9] and in [10] was greater than 50 µM in each case. For the same compound, the TGI in experiment [5] and in experiment [8] was greater than 50 µM in each case.
As for `NNCCc1ccc(NC(=O)CCCc2ccc(C(=O)Nc3ccccc3N)cc2)cc1`, the GI50 is 12.6 µM in experiment [6]; 45.6 µM in experiment [1]; 3.18 µM in experiment [2]; 7.49 µM in experiment [3]; 9.5 µM in experiment [9]; 4.34 µM in experiment [10]. For the same compound, the GI50 in experiment [5] was 3.34 µM; in experiment [8], 32.8 µM. For the same compound, the TGI was 53.9 µM in [6]; greater than 100 µM in experiment [1]; greater than 100 µM in experiment [2]; greater than 100 µM in experiment [3]; greater than 100 µM in experiment [9]; greater than 100 µM in experiment [10]. Also, the values for the TGI in experiment [5] and in experiment [8] were 25 µM and greater than 100 µM, respectively.
On to `CCCc1cc(=O)n2c(C(=O)Nc3ccc(Cl)cc3C)c(C(=O)Nc3ccc(F)cc3)sc2n1`, for which the GI50 is 1.17 µM in [6]; 9.4 µM in experiment [1]; 2.7 µM in experiment [2]; 4.13 µM in experiment [3]; 27.7 µM in experiment [9]; 20 µM in [10]. The GI50 in [5] was 1.33 µM; in experiment [8] it was 3.71 µM. In addition, the TGI in [6] was 4.46 µM; in experiment [1], greater than 150 µM; in [2] it was 6.88 µM; in experiment [3], 21.9 µM; in [9] it was 61 µM; in experiment [10], 132 µM. The figures for the TGI in experiment [5] and in experiment [8] were 23.8 µM and 11.5 µM, respectively.
On to `COC(=O)C(=O)C(C(C)=O)C(=O)NCc1ccc(OC)c(OC)c1` (configuration not stated), for which the TGI in experiment [6], in experiment [1], in experiment [3], in experiment [7], in experiment [4] and in experiment [5] was greater than 100 µM in each case. In experiment [8], this compound gave a concentration for total growth inhibition (TGI) greater than 100 µM.
With `Nc1cc2c(cc1Br)[nH]c(=O)c1ccccc12`, the GI50 in experiment [6] was 4.3 µM; in experiment [1] it was 4.79 µM; in experiment [2], 5.19 µM; in [3], 3.44 µM; in experiment [9], 12.3 µM; in [10], 4.22 µM. Further, the results for the GI50 in experiment [5] and in [8] were 10.8 µM and 2.66 µM, respectively. The TGI in experiment [6] came out at 21.7 µM; in experiment [1], 20.8 µM; in experiment [2] it was 42.3 µM; in [3] it was 11.2 µM; in [9] it was 31.4 µM; in experiment [10], 55.8 µM. The figures for the total growth inhibition concentration (TGI) in experiment [5] and in experiment [8] were 54.3 µM and 11.9 µM, respectively.
As for `COc1ccc(/C(C)=C(\c2ccc(OCCN3CCCCCC3)cc2)c2ccc(OC(=O)C3CCCCC3)cc2)cc1`, the GI50 is 0.704 µM in experiment [6]; 0.378 µM in experiment [1]; 0.55 µM in [2]; 1.87 µM in experiment [3]; 1.53 µM in [9]; 0.405 µM in [10]. The GI50 in experiment [5] is 0.707 µM; in [8] it was 1.6 µM. Moreover, the total growth inhibition concentration (TGI) amounted to 2.6 µM in experiment [6]; 1.41 µM in [1]; 2.23 µM in experiment [2]; 4.19 µM in experiment [3]; 3.36 µM in [9]; 3.33 µM in experiment [10]. Moreover, the TGI in [5] is 2.85 µM; in experiment [8], 3.88 µM.
